Test results as given in patent publication US6262064A, “Octahydrobenzo[f]quinoline-based receptor agonists and antagonists” (priority 1999, dated 2001).
Where two headings read alike, the source gives them in different places.

Key:
5HT2 serotonin receptor = molecular target: T1, 5HT2 serotonin receptor (Rattus norvegicus, UniProt P14842); test: Serotonin (5HT2) binding assay ([3H]Ketanserin)
T1 construct: rat cortical membranes; from tissue; host or cells: rat cortex membranes
Description: The final ligand concentration was 1.0 nM.

D2 dopamine receptor = molecular target: T2, D2 dopamine receptor (Rattus norvegicus, UniProt P61169); test: Dopamine D2 binding assay ([3H]Sulpiride); conditions: for dopamine receptor binding affinity / selectivity for the D2 over the D1 dopamine receptor: in words
T2 construct: rat striatal membranes; from tissue; host or cells: rat striatum membranes
Description: The final ligand concentration was 0.5 nM.

[1] = molecular target: alpha2-adrenergic receptor; test: Alpha2-adrenergic (non-selective) binding assay ([3H]RX 781094); parameters: species or system rat; conditions: for α2 receptor binding affinity: in words
D2 receptor = molecular target: T3, D2 receptor (Rattus norvegicus, UniProt P61169); test: D2 receptor agonist evaluation (membrane binding with and without Gpp(NH)p); conditions: for D2 agonist/antagonist assessment / effect of GTP on D2 receptor binding: in words
T3 construct: expressed in transfected cells
Description: To determine the D2, D3 or D4 receptor selectivity, competition binding assays were performed using membranes from fibroblast cell lines transfected with D2444 (rat), D3 (human) or D4 (rat) receptors. All cell lines were maintained in Dulbecco's modified Eagle's media (DMEM) supplemented with 10 % fetal bovine serum at 37° C. with 5% CO2. Transfected cells were maintained in DMEM containing 300 μg/mL of the antibiotic G418 (Gibco).
To determine whether or not compounds of this invention were D2 receptor agonists, a membrane binding assay, utilizing the D2 cell line described in Example 26, was performed in the presence and absence of the non-hydrolyzable guanine nucleotide (GTP analogue) Gpp(NH)p.

[2] = test system: alpha1-adrenergic receptor; conditions: for α1 receptor binding affinity: in words
Description: In these assays, the binding reaction was initiated by the addition of varying concentrations of the potential binding composition and a radioligand to an appropriate tissue. The assay was then incubated to allow binding. Binding was then terminated by dilution of the assay with a cold buffer, followed by rapid vacuum filtration onto Whatman GI/C filters that were presoaked in 0.1% polyethylene imine for at least 3 hours. Radioactivity trapped onto the filters was determined and compared to control values in order to ascertain any interactions of test compounds with the binding sites. Binding affinity analyses were performed by Novascreen, Division of the Adheron Corporation, Hanover, Md.
Incubation was conducted in 50 mM TRIS-HCl (pH 7.7) at 25° C. for 60 minutes. […] The final ligand concentration was 0.5 nm.

D1 dopamine receptor = molecular target: T4, D1 dopamine receptor (Rattus norvegicus, UniProt P18901); test: Dopamine D1 binding assay ([3H]SCH 23390); conditions: Table III; rat striatal membranes; read-out: D1 receptor binding affinity Ki
T4 construct: rat striatal membranes; from tissue; host or cells: rat striatum membranes
Description: The final radioligand concentration was 0.5 nM.

5HT1 serotonin receptor = test: Serotonin (5HT1) binding assay
Description: In these assays, the binding reaction was initiated by the addition of varying concentrations of the potential binding composition and a radioligand to an appropriate tissue. The assay was then incubated to allow binding. Binding was then terminated by dilution of the assay with a cold buffer, followed by rapid vacuum filtration onto Whatman GI/C filters that were presoaked in 0.1% polyethylene imine for at least 3 hours. Radioactivity trapped onto the filters was determined and compared to control values in order to ascertain any interactions of test compounds with the binding sites.
Incubation was conducted in 50 mM TRIS-HCl (pH 7.4) at 45 minutes for 37° C. The radioligand used was [^3 H]Hydroxytryptamine binoxalate (15-30 Ci/mmol). The final ligand concentration was 3.0 nM.

5HT1A serotonin receptor = molecular target: T5, 5HT1A serotonin receptor (Bos taurus, UniProt F6Q2H9); test: Serotonin (5HT1A) binding assay ([3H]-8-OH-DPAT); parameters: species or system bovine; conditions: for 5HT1A serotonin receptor binding affinity: in words
T5 construct: bovine hippocampus; from tissue; host or cells: bovine hippocampus
T5 sequence (F6Q2H9 1-422): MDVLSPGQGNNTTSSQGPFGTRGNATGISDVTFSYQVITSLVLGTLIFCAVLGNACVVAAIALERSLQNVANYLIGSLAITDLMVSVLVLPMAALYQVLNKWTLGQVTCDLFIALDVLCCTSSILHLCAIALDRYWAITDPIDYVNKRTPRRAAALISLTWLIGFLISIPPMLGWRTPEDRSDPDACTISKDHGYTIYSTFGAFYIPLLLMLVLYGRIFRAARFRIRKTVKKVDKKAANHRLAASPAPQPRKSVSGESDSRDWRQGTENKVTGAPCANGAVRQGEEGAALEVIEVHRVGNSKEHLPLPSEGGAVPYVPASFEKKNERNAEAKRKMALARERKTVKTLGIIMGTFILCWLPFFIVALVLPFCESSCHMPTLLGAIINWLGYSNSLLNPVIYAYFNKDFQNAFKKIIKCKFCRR

beta-adrenergic receptor = test: Beta-adrenergic (non-selective) binding assay ([3H]DHA); parameters: species or system rat
5HT3 serotonin receptor = test: Serotonin (5HT3) binding assay ([3H]GR65630, NIE-115 neuroblastoma cells)
Description: The binding affinities of the compositions of this invention were assayed for various receptors. In these assays, the binding reaction was initiated by the addition of varying concentrations of the potential binding composition and a radioligand to an appropriate tissue. The assay was then incubated to allow binding. Binding was then terminated by dilution of the assay with a cold buffer, followed by rapid vacuum filtration onto Whatman GI/C filters that were presoaked in 0.1% polyethylene imine for at least 3 hours. Radioactivity trapped onto the filters was determined and compared to control values in order to ascertain any interactions of test compounds with the binding sites.
Incubation was conducted in 20 mM HEPES (pH 7.4) containing 150 mM NaCl at 25° C. for 30 minutes. The radioligand used was [^3 H]GR65630 (30-50 Ci/mmol). The final ligand concentration was 0.7 nM.

[3] = Table III, rat cortical membranes, read-out: α2 receptor binding affinity Ki
[4] = Table XV, with Gpp(NH)p, read-out: D2 receptor binding Ki with Gpp(NH)p
[5] = read-out: α1 receptor binding affinity Ki, Table III, rat forebrain membranes
[6] = 5-HT2 receptor binding affinity Ki
[7] = read-out: 5-HT1 receptor binding affinity Ki, Table III, rat cortical membranes
[8] = Table III, bovine hippocampus, read-out: 5-HT1A receptor binding affinity Ki
[9] = Table III, rat striatal membranes, read-out: D2 receptor binding affinity Ki
[10] = 5-HT1A receptor binding affinity Ki, Table III, bovine hippocampus
[11] = read-out: Ki of reference compounds, 5HT1, Table VII
[12] = Table VIII, read-out: Ki of reference compounds, 5HT1A
[13] = Table VI, read-out: Ki of reference compounds, beta-adrenergic
[14] = Table V, read-out: Ki of reference compounds, alpha2-adrenergic
[15] = read-out: Ki of reference compounds, 5HT3, Table X

T1 sequence (P14842 whole entry): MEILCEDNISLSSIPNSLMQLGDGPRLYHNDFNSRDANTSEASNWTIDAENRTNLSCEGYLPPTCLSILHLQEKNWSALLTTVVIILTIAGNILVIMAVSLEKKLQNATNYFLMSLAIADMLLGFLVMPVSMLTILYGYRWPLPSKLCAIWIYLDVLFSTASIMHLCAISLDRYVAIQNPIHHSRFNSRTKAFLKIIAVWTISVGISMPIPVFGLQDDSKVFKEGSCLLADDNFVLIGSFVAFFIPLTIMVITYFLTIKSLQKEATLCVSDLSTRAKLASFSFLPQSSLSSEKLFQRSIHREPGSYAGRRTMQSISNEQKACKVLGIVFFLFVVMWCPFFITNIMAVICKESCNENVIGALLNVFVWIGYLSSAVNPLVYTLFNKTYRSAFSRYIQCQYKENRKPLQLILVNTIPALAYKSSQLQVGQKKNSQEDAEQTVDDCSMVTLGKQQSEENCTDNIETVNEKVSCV
T2 sequence (P61169 whole entry): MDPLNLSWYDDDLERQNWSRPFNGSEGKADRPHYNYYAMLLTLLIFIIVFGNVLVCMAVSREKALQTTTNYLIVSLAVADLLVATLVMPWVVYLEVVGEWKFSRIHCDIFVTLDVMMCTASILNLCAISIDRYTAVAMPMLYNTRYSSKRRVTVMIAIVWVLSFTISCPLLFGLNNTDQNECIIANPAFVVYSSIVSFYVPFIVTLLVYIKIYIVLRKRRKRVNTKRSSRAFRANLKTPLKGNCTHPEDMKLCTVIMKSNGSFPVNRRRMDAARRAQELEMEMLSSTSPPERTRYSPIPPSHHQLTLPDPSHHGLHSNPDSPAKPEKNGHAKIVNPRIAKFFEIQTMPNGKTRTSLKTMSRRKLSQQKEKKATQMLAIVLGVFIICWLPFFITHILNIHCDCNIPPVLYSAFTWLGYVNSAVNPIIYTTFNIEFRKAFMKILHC
T3 sequence (P61169 whole entry): as above
T4 sequence (P18901 whole entry): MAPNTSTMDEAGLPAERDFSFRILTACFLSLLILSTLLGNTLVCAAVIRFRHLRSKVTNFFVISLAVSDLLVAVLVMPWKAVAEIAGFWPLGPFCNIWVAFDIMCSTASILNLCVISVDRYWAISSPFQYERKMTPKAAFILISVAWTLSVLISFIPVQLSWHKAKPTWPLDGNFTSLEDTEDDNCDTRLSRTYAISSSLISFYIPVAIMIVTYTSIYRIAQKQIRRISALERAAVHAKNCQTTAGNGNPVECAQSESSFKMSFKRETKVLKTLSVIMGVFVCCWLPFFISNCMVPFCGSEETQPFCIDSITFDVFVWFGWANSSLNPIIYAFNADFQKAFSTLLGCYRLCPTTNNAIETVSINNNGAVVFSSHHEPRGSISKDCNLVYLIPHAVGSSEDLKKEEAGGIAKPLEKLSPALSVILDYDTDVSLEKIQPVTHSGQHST

For Oc1ccc2c(c1O)CC[C@@H]1[C@@H]2CCCN1CCc1cccs1 (relative stereo) [(-)-trans-33], the “5HT2 serotonin receptor binding affinity” value (5HT2 serotonin receptor) was “high binding affinities for the 5HT2 serotonin receptor”.

Oc1cccc2c1CC[C@H]1[C@@H]2CCCN1CCc1ccccc1 (relative stereo) [cis-25, Cis-7-hydroxy-4-phenethyl-1,2,3,4,4a,5,6,10b-octahydrobenzo[f]quinoline] was tested, and the Ki (D2 dopamine receptor) was 6.6 nM, the “dopamine receptor binding affinity” value (D2 dopamine receptor) was “good dopamine receptor binding affinities” and the “selectivity for the D2 over the D1 dopamine receptor” value (from here on “selectivity for the D2”) (D2 dopamine receptor) was “highly selective for the D2 dopamine receptor over the D1 dopamine receptor”. The Ki [1, 3] was 0.27 nM, the “α2 receptor binding affinity” value [1] was “high binding affinities for the α2 receptor” and the “Ratio of +:- Gpp(NH)p” value (D2 receptor; Table XV) was 1.07. The Ki (D2 receptor; [4]) was 176 ± 213 nM, the Ki (D2 receptor; Table XV, without Gpp(NH)p, read-out: D2 receptor binding Ki without Gpp(NH)p) was 164 ± 51 nM and the D2 agonist/antagonist assessment (D2 receptor) was “appear to be an antagonist”. The “effect of GTP on D2 receptor binding” value (D2 receptor) was “the addition of GTP did not significantly affect receptor binding affinity”, the “α1 receptor binding affinity” value [2] was “high binding affinities for the α1 receptor” and the Ki [2, 5] was 16 nM.

For Oc1cccc2c1CC[C@H]1[C@H]2CCCN1CCc1ccccc1 (relative stereo) [trans-25, Trans-7-hydroxy-4-phenethyl-1,2,3,4,4a,5,6,10b-octahydrobenzo[f]quinoline], the Ki (D1 dopamine receptor) was 5100 nM, the Ki (D2 dopamine receptor) was 0.87 nM and the “dopamine receptor binding affinity” value (D2 dopamine receptor) was “good dopamine receptor binding affinities”. For the same compound, the “selectivity for the D2” value (D2 dopamine receptor) was “highly selective for the D2 dopamine receptor over the D1 dopamine receptor”, the Ki [1, 3] was 0.22 nM and the “α2 receptor binding affinity” value [1] was “high binding affinities for the α2 receptor”. For the same compound, the “5HT2 serotonin receptor binding affinity” value (5HT2 serotonin receptor) was “high binding affinities for the 5HT2 serotonin receptor”, the Ki (5HT2 serotonin receptor; [6]) was 27 nM and the Ki (D2 receptor) was 37 ± 9 nM. The “Ratio of +:- Gpp(NH)p” value (D2 receptor; Table XV) was 34.7, the Ki (D2 receptor; [4]) was 1270 ± 1640 nM and the D2 agonist/antagonist assessment (D2 receptor) was “appear to be agonists”. For the same compound, the “effect of GTP on D2 receptor binding” value (D2 receptor) was “D2 receptor binding was enhanced by the addition of GTP”, the “α1 receptor binding affinity” value [2] was “high binding affinities for the α1 receptor” and the Ki [2, 5] was 4.5 nM. The Ki (5HT1 serotonin receptor; [7]) was 470 nM.

With Oc1cccc2c1CC[C@@H]1[C@@H]2CCCN1CCc1cccs1 (relative stereo) [trans-31] the Ki (D2 dopamine receptor) was 1.9 nM, the “dopamine receptor binding affinity” value (D2 dopamine receptor) was “good dopamine receptor binding affinities” and the “selectivity for the D2” value (D2 dopamine receptor) was “highly selective for the D2 dopamine receptor over the D1 dopamine receptor”. The Ki [1, 3] was 7.2 nM, the “α2 receptor binding affinity” value [1] was “high binding affinities for the α2 receptor” and the Ki (5HT1A serotonin receptor; [8]) was 36 nM. For the same compound, the “5HT1A serotonin receptor binding affinity” value (5HT1A serotonin receptor) was “high binding affinities for the 5HT1A serotonin receptor”, the Ki (5HT2 serotonin receptor) was 80 nM and the “5HT2 serotonin receptor binding affinity” value (5HT2 serotonin receptor; in words) was “high binding affinities for the 5HT2 serotonin receptor”. For the same compound, the “α1 receptor binding affinity” value [2] was “high binding affinities for the α1 receptor” and the Ki [2, 5] was 17 nM.

For Oc1ccc2c(c1O)CC[C@@H]1[C@@H]2CCCN1CCc1cccs1 (relative stereo) [trans-33], the Ki (D2 dopamine receptor) was 57 nM, the “dopamine receptor binding affinity” value (D2 dopamine receptor) was “good dopamine receptor binding affinities” and the “selectivity for the D2” value (D2 dopamine receptor) was “highly selective for the D2 dopamine receptor over the D1 dopamine receptor”. The Ki [1, 3] was 19 nM, the “α2 receptor binding affinity” value [1] was “high binding affinities for the α2 receptor” and the Ki (5HT1A serotonin receptor; [8]) was 190 nM. The “5HT1A serotonin receptor binding affinity” value (5HT1A serotonin receptor) was “high binding affinities for the 5HT1A serotonin receptor”, the Ki (5HT2 serotonin receptor) was 100 nM and the Ki [2, 5] was 180 nM. For the same compound, the Ki (5HT1 serotonin receptor; [7]) was 1800 nM.

For Oc1ccc2c(c1O)CC[C@@H]1[C@H]2CCCN1CCc1ccccc1 (single isomer, unassigned) [cis-(-)-9], the Ki (D2 dopamine receptor) was 54 nM, the “dopamine receptor binding affinity” value (D2 dopamine receptor) was “good dopamine receptor binding affinities” and the “selectivity for the D2” value (D2 dopamine receptor) was “highly selective for the D2 dopamine receptor over the D1 dopamine receptor”. The Ki [1, 3] was 74 nM, the “α2 receptor binding affinity” value [1] was “high binding affinities for the α2 receptor” and the Ki [2, 5] was 180 nM.

Oc1ccc2c(c1O)CC[C@H]1[C@H]2CCCN1CCc1ccccc1 (single isomer, unassigned) [trans-(+)-9, Trans-(+)7,8-dihydroxy-4-phenethyl-1,2,3,4,4a,5,6, 10b-octahydrobenzo[f]quinoline] showed a Ki (D2 dopamine receptor; [9]) of 2500 nM, a Ki [1, 3] of 550 nM and a Ki (5HT1A serotonin receptor; [10]) of 910 nM. The “α1 receptor binding affinity” value [2] was “high binding affinities for the α1 receptor” and the Ki [2, 5] was 53 nM.

Compound Oc1cccc2c1CC[C@@H]1[C@@H]2CCCN1CCc1ccccc1 (single isomer, unassigned) [trans-(+)-25] has a Ki (D2 dopamine receptor; [9]) of 400 nM, a Ki [1, 3] of 440 nM and a Ki (5HT1A serotonin receptor; [10]) of 410 nM. The “5HT2 serotonin receptor binding affinity” value (5HT2 serotonin receptor) was “high binding affinities for the 5HT2 serotonin receptor”, the Ki (5HT2 serotonin receptor; [6]) was 9.5 nM and the “α1 receptor binding affinity” value [2] was “high binding affinities for the α1 receptor”. For the same compound, the Ki [2, 5] was 5.5 nM.

For Oc1ccc2c(c1O)CC[C@H]1[C@H]2CCCN1CCc1ccccc1 (single isomer, unassigned) [trans-(-)-9, Trans-(-)-7,8-Dihydroxy-4-phenethyl-1,2,3,4,4a,5,6, 10b-octahydrobenzo[f]quinoline], the Ki (D1 dopamine receptor) was 3500 nM, the Ki (D2 dopamine receptor) was 0.38 nM and the “dopamine receptor binding affinity” value (D2 dopamine receptor) was “good dopamine receptor binding affinities”. The “selectivity for the D2” value (D2 dopamine receptor) was “highly selective for the D2 dopamine receptor over the D1 dopamine receptor”, the Ki [1, 3] was 9 nM and the “α2 receptor binding affinity” value [1] was “high binding affinities for the α2 receptor”. For the same compound, the Ki (5HT1A serotonin receptor; [10]) was 67 nM, the “5HT1A serotonin receptor binding affinity” value (5HT1A serotonin receptor) was “high binding affinities for the 5HT1A serotonin receptor” and the Ki (5HT2 serotonin receptor) was 26 nM. For the same compound, the “5HT2 serotonin receptor binding affinity” value (5HT2 serotonin receptor; in words) was “high binding affinities for the 5HT2 serotonin receptor”, the Ki [2, 5] was 130 nM and the Ki (5HT1 serotonin receptor; [7]) was 3300 nM.

COc1ccc2[nH]cc(CCN)c2c1 [5-Methoxytryptamine, reference compound] showed a Ki (5HT1 serotonin receptor; [11]) of 45.8 nM.

CCCN(CCC)C1CCc2cccc(O)c2C1 (stereo not drawn) [8-OH-DPAT, reference compound] was tested, and the Ki (5HT1A serotonin receptor; Ki characterizing the 5HT1A assay, assay characterization) was 2 nM and the Ki (5HT1A serotonin receptor; [12]) was 1.4 nM.

Compound CC(C)(C)NCC(O)c1ccc(O)c(CO)c1 (stereo not drawn) [Albuterol] has a Ki (beta-adrenergic receptor; [13]) of 2880 nM.

Work on C=CCc1ccccc1OCC(O)CNC(C)C (stereo not drawn) [Alprenolol] yielded a Ki (beta-adrenergic receptor; [13]) of 3.5 nM and a Ki (beta-adrenergic receptor; assay characterization, read-out: Ki characterizing the beta assay) of 1.74 nM.

Clc1cccc(Cl)c1N=C1NCCN1 [Clonidine, reference compound] was tested, and the Ki [1, 14] was 14 nM.

In the case of O=C(c1ccc(F)cc1)C1CCN(CCn2c(=O)[nH]c3ccccc3c2=O)CC1 [Ketanserin, reference compound], the Ki (5HT1A serotonin receptor; [12]) is reported as over 10000 nM.

CN1[C@@H]2CC[C@H]1C[C@@H](OC(=O)c1cc(Cl)cc(Cl)c1)C2 [MDL-72222] gave a Ki (5HT3 serotonin receptor; read-out: Ki characterizing the 5HT3 assay, assay characterization) of 0.3 nM and a Ki (5HT3 serotonin receptor; [15]) of 7.2 nM.

CCN(CC)CCNC(=O)c1cc(Cl)c(N)cc1OC [Metoclopramide] was tested, and the Ki (5HT3 serotonin receptor; [15]) was 191 nM.

Compound COCCc1ccc(OCC(O)CNC(C)C)cc1 (stereo not drawn) [Metoprotol] has a Ki (beta-adrenergic receptor; [13]) of 45 nM.

Cc1ccc(N(CC2=NCCN2)c2cccc(O)c2)cc1 [Phentolamine, reference compound] was tested, and the Ki [1, 14] was 1.7 nM.

In the case of CC(C)NCC(O)COc1cccc2[nH]ccc12 (stereo not drawn) [Pindolol], the Ki (beta-adrenergic receptor; [13]) is reported as 1.1 nM.

For c1ccc2nc(N3CCNCC3)ccc2c1 [Quipazin], the Ki (5HT3 serotonin receptor; [15]) was 1.5 nM.

With NCCc1c[nH]c2ccc(O)cc12 [Serotonin, reference compound] the Ki (5HT1 serotonin receptor; read-out: Ki characterizing the 5HT1 assay, assay characterization) was 2.8 nM, the Ki (5HT1 serotonin receptor; [11]) was 4.6 nM and the Ki (5HT3 serotonin receptor; [15]) was 18.7 nM.

With COc1cccc(OC)c1OCCNCC1COc2ccccc2O1 (stereo not drawn) [WB4101, reference compound] the Ki ([2]; read-out: Ki of reference compounds, alpha1-adrenergic, Table IV) was 2.6 nM.
